This is an account of results in ChEMBL document CHEMBL1143478, “Conformationally restricted anti-plasmodial chalcones” (Bioorg Med Chem Lett, 2005).

In brackets after ≈: the same amount, converted by molar mass.

This assay concerns Plasmodium falciparum. Put plainly: In vitro antimalarial activity against Plasmodium falciparum 3D7. The format is functional, organism-based.

Take `COc1ccccc1/C=C/C(=O)c1ccccc1`: the IC50 (in general, the concentration that gives 50% inhibition) was found to be 7.6 µg/mL (≈ 31.9 µM). Regarding `COc1ccc(Br)cc1/C=C/C(=O)c1ccccc1C`, the 50% inhibitory concentration (IC50) was found to be 9.3 µg/mL (≈ 28.1 µM). Regarding `Cc1ccccc1C(=O)C1=Cc2cc(Br)ccc2OC1`, the midpoint of inhibition, the IC50, lay at 13.5 µg/mL (≈ 41 µM). For `COc1ccc(C(=O)C2=Cc3ccc(OC)cc3OC2)cc1` the value was 13.3 µg/mL (≈ 44.9 µM); for `COc1cccc2c1OCC(C(=O)c1ccccc1C)=C2`, 15.1 µg/mL (≈ 53.9 µM). Then `COc1ccc(Br)cc1/C=C/C(=O)c1ccc(C)cc1`, with 10 µg/mL (≈ 30.2 µM). As to `O=C(C1=Cc2ccccc2OC1)c1ccccc1`, inhibition was half-maximal at 4.7 µg/mL (≈ 19.9 µM) (IC50).

For the molecule `Cc1ccc(C(=O)C2=Cc3cc(Br)ccc3OC2)cc1`, the 50% inhibitory concentration (IC50) was found to be 8.6 µg/mL (≈ 26.1 µM). For `O=C(C1=C(c2ccccc2)CCC1)c1ccccc1` the value was 35 µg/mL (≈ 141 µM); for `COc1cccc(/C=C/C(=O)c2ccccc2C)c1OC`, 11 µg/mL (≈ 39 µM). Molecule `COc1ccc(C(=O)/C=C/c2ccc(OC)cc2OC)cc1` displayed an IC50 of 6 µg/mL (≈ 20.1 µM). `COc1ccc(C(=O)C2=C(c3ccc(OC)cc3)CCC2)cc1` gave an IC50 of more than 100 µg/mL. Then `COc1ccc(/C=C/C(=O)c2ccc(OC)cc2)cc1` [4,4'-DIMETHOXYCHALCONE], with 8.9 µg/mL (≈ 33.2 µM); and `O=C(/C=C/c1ccccc1)c1ccccc1` [CHALCONE], with 6.7 µg/mL (≈ 32.2 µM).

`C=CC(C)(C)c1cc(/C=C/C(=O)c2ccc(O)cc2)c(OC)cc1O` [LICOAGROCHACONE A] returned an IC50 of 2.2 µg/mL (≈ 6.5 µM).
